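Here, GI50 denotes the concentration required for 50% inhibition of growth. The concentration for full growth arrest is given as TGI.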
Experiments:
Experiment in all cases: NCI-60 cell line screen, 384-well format
[1] = test system: HS 578T breast
[2] = test system: RPMI-8226 leukemia
[3] = test system: HOP-92 NSCLC
[4] = test system: HL-60(TB) leukemia
[5] = test system: SN12C renal
[6] = test system: MDA-MB-468 breast
[7] = test system: 786-0 renal
[8] = test system: IGROV1 ovarian
[9] = test system: HCT-15 colon
[10] = test system: HOP-62 NSCLC
[11] = test system: CCRF-CEM leukemia
[12] = test system: COLO 205 colon
[13] = test system: SF-539 CNS
[14] = test system: DU-145 prostate
[15] = test system: SF-295 CNS
[16] = test system: PC-3 prostate
[17] = test system: HCC-2998 colon
[18] = test system: EKVX NSCLC
[19] = test system: SNB-19 CNS
[20] = test system: MOLT-4 leukemia
[21] = test system: MDA-MB-435 melanoma
[22] = test system: M14 melanoma
[23] = test system: ACHN renal
[24] = test system: HCT-116 colon
[25] = test system: MDA-MB-231 breast
[26] = test system: A498 renal
[27] = test system: SK-MEL-28 melanoma
[28] = test system: KM12 colon
[29] = test system: NCI-H23 lung
[30] = test system: UO-31 renal
[31] = test system: SW-620 colon
[32] = test system: OVCAR-3 ovarian
[33] = test system: UACC-257 melanoma
[34] = test system: UACC-62 melanoma
[35] = test system: NCI-H226 lung
[36] = test system: K-562 leukemia
[37] = test system: TK-10 renal
[38] = test system: NCI-H522 lung
[39] = test system: OVCAR-4 ovarian
[40] = test system: SK-OV-3 ovarian
[41] = test system: U251 glioblastoma
[42] = test system: SNB-75 CNS
[43] = test system: NCI-H460 NSCLC
[44] = test system: MALME-3M melanoma
[45] = test system: T-47D breast
[46] = test system: SF-268 CNS
[47] = test system: NCI/ADR-RES ovarian
[48] = test system: RXF 393 renal
[49] = test system: A549 NSCLC
[50] = test system: MCF7 breast
[51] = test system: BT-549 breast
[52] = test system: LOX IMVI melanoma
[53] = test system: CAKI-1 renal
[54] = test system: OVCAR-8 ovarian
[55] = test system: HT29 colon
[56] = test system: SK-MEL-5 melanoma
[57] = test system: NCI-H322M lung

C[C@H](Nc1ccc2c(c1)OCCn1cc(N3C(=O)OC[C@H]3C(F)F)nc1-2)C(N)=O
GI50 [1]: 6.24 µM | TGI [1]: 48.4 µM | GI50 [2]: 16.1 µM | TGI [2]: 31.7 µM | GI50 [3]: 2.2 µM | TGI [3]: > 100 µM | GI50 [4]: 0.156 µM | TGI [4]: 3.3 µM | GI50 [5]: 5.74 µM | TGI [5]: > 100 µM | GI50 [6]: 1.57 µM | TGI [6]: 10.9 µM | GI50 [7]: 40.5 µM | TGI [7]: > 100 µM | GI50 [8]: 0.0195 µM | TGI [8]: 0.141 µM | GI50 [9]: 0.73 µM | TGI [9]: > 100 µM | GI50 [10]: 34.6 µM | TGI [10]: > 100 µM | GI50 [11]: 5.71 µM | TGI [11]: > 100 µM | GI50 [12]: 0.987 µM | TGI [12]: > 100 µM | GI50 [13]: 17.6 µM | TGI [13]: > 100 µM | GI50 [14]: 18 µM | TGI [14]: > 100 µM | GI50 [15]: 14.6 µM | TGI [15]: > 100 µM | GI50 [16]: 3.82 µM | TGI [16]: > 100 µM | GI50 [17]: 5.68 µM | TGI [17]: > 100 µM | GI50 [18]: 2.99 µM | TGI [18]: 46.7 µM | GI50 [19]: 85.3 µM | TGI [19]: > 100 µM | GI50 [20]: 1.07 µM | TGI [20]: 10.6 µM | GI50 [21]: 58.1 µM | TGI [21]: > 100 µM | GI50 [22]: > 100 µM | TGI [22]: > 100 µM | GI50 [23]: 15.2 µM | TGI [23]: > 100 µM | GI50 [24]: 25.9 µM | TGI [24]: > 100 µM | GI50 [25]: 25.9 µM | TGI [25]: > 100 µM | GI50 [26]: 15.2 µM | TGI [26]: > 100 µM | GI50 [27]: 7.96 µM | TGI [27]: > 100 µM | GI50 [28]: 19.5 µM | TGI [28]: 54.2 µM | GI50 [29]: 21.8 µM | TGI [29]: > 100 µM | GI50 [30]: 6.24 µM | TGI [30]: > 100 µM | GI50 [31]: 95.4 µM | TGI [31]: > 100 µM | GI50 [32]: 3.27 µM | TGI [32]: 21.7 µM | GI50 [33]: > 100 µM | TGI [33]: > 100 µM | GI50 [34]: 5.64 µM | TGI [34]: > 100 µM | GI50 [35]: 38.5 µM | TGI [35]: > 100 µM | GI50 [36]: > 100 µM | TGI [36]: > 100 µM | GI50 [37]: 4.03 µM | TGI [37]: > 100 µM | GI50 [38]: 19 µM | TGI [38]: > 100 µM | GI50 [39]: 43.8 µM | TGI [39]: > 100 µM | GI50 [40]: 0.049 µM | TGI [40]: > 100 µM | GI50 [41]: 75.8 µM | TGI [41]: > 100 µM | GI50 [42]: 3.2 µM | TGI [42]: > 100 µM | GI50 [43]: 0.802 µM | TGI [43]: > 100 µM | GI50 [44]: 5.85 µM | TGI [44]: > 100 µM | GI50 [45]: 0.0131 µM | TGI [45]: 0.0728 µM | GI50 [46]: 24 µM | TGI [46]: > 100 µM | GI50 [47]: > 100 µM | TGI [47]: > 100 µM | GI50 [48]: 15.9 µM | TGI [48]: 71.4 µM | GI50 [49]: 12.7 µM | TGI [49]: > 100 µM | GI50 [50]: 0.039 µM | TGI [50]: > 100 µM | GI50 [51]: 14.5 µM | TGI [51]: > 100 µM | GI50 [52]: 12.5 µM | TGI [52]: 43.9 µM | GI50 [53]: 3.11 µM | TGI [53]: 46.3 µM | GI50 [54]: 27 µM | TGI [54]: > 100 µM | GI50 [55]: 0.289 µM | TGI [55]: > 100 µM | GI50 [56]: 43.4 µM | TGI [56]: > 100 µM | GI50 [57]: 2.85 µM | TGI [57]: 57.3 µM
